Laboratory results: patent US8124778B2, “Tricyclic inhibitors of fatty acid amide hydrolase” (The Scripps Research Institute, priority 2007, dated 2012)

Target: T1, purified recombinant rat FAAH (Rattus norvegicus, UniProt P97612)
T1 construct: The truncated rat FAAH (rFAAH) was expressed in E. coli and purified as described; made in house; host or cells: E. coli
T1 sequence (P97612 30-579 limits assumed): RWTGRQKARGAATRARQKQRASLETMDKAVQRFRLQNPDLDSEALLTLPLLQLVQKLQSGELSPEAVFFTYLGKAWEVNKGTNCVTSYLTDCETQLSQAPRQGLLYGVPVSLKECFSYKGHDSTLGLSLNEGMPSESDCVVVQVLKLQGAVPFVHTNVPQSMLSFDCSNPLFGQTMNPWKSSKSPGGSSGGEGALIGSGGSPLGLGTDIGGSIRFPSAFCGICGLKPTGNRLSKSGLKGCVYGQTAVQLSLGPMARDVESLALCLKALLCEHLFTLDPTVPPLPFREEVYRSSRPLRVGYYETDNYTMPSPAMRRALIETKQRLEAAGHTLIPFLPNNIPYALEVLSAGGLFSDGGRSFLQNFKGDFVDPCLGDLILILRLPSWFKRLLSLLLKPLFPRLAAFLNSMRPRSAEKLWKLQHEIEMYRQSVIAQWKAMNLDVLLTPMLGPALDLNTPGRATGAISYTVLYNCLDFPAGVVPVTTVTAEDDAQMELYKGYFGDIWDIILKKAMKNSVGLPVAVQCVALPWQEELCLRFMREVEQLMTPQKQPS
Assay: FAAH inhibition enzyme assay (14C-oleamide hydrolysis, Dixon plot)
Format: biochemical
Settings: rat FAAH
Protocol: Enzyme assays were performed at 20-23° C. with purified recombinant rat FAAH expressed in E. coli (Patricelli, M. P.; Lashuel, H. A.; et al. Biochemistry 1998, 37, 15177-15187) (unless indicated otherwise) or with solubilized COS-7 membrane extracts from cells transiently transfected with human FAAH cDNA (Giang, D. K.; Cravatt, B. F. Proc. Natl. Acad. Sci. U.S.A. 1997, 94, 2238-2242) (where specifically indicated) in a buffer of 125 mM Tris/1 mM EDTA/0.2% glycerol/0.02% Triton X-100/0.4 mM Hepes, pH 9.0 buffer (Patricelli, M. P.; Patterson, J. P.; et al. Bioorg. Med. Chem. Lett. 1998, 8, 613-618). The initial rates of hydrolysis (≦10-20% reaction) were monitored using enzyme concentrations at least three times below the measured Ki by following the breakdown of ^14C-oleamide and Ki's (standard deviations are provided in Supporting Information tables) were established as described (Dixon plot) (Boger, D. L.; Sato, H.; et al. Proc. Natl. Acad. Sci. U.S.A. 2000, 97, 5044-5049). Lineweaver-Burk analysis previously established reversible, competitive inhibition (Boger, D. L.; Miyauchi, H.; et al. J. Med. Chem. 2005, 48, 1849-1856).
FAAH Inhibition. ^14C-labeled oleamide was prepared from ^14C-labeled oleic acid as described (Cravatt, B. F.; et al. Science 1995, 268, 1506-1509). The truncated rat FAAH (rFAAH) was expressed in E. coli and purified as described (Patricelli, M. P.; Lashuel, H. A.; et al. Biochemistry 1998, 37, 15177-15187). The purified recombinant rFAAH was used in the inhibition assays unless otherwise indicated. The full-length human FAAH (hFAAH) was expressed in COS-7 cells as described (Giang, D. K.; Cravatt, B. F. Proc. Natl. Acad. Sci. U.S.A. 1997, 94, 2238-2242), and the lysate of hFAAH-transfected COS-7 cells was used in the inhibition assays where explicitly indicated.
The inhibition assays were performed as described (Cravatt, B. F.; et al. Science 1995, 268, 1506-1509). In brief, the enzyme reaction was initiated by mixing 1 nM of rFAAH (800, 500, or 200 pM rFAAH for inhibitors with Ki≦1-2 nM) with 10 μM of ^14C-labeled oleamide in 500 μL of reaction buffer (125 mM TrisCl, 1 mM EDTA, 0.2% glycerol, 0.02% Triton X-100, 0.4 mM Hepes, pH 9.0) at room temperature in the presence of three different concentrations of inhibitor. The enzyme reaction was terminated by transferring 20 μL of the reaction mixture to 500 μL of 0.1 N HCl at three different time points. The ^14C-labeled oleamide (substrate) and oleic acid (product) were extracted with EtOAc and analyzed by TLC as detailed (Cravatt, B. F.; et al. Science 1995, 268, 1506-1509). The Ki of the inhibitor was calculated using a Dixon plot as described (standard deviations are provided in the Supporting Information tables) (Boger, D. L.; Sato, H.; et al. Proc. Natl. Acad. Sci. U.S.A. 2000, 97, 5044-5049). Lineweaver-Burk analysis was performed as described confirming competitive, reversible inhibition (Boger, D. L.; Miyauchi, H.; et al. J. Med. Chem. 2005, 48, 1849-1856).

FAAH inhibitory potency (in words)	SMILES
significant potency	O=C(CCCCSCc1ccccc1)c1ncc(-c2ccccn2)o1 [12k, 5-(Benzylthio)-1-(5-(pyridin-2-yl)oxazol-2-yl)pentan-1-one]
significant potency	O=C(CCCCCSc1ccccc1)c1ncc(-c2ccccn2)o1 [12p, 6-(Phenylthio)-1-(5-(pyridin-2-yl)oxazol-2-yl)hexan-1-one]
lower ability to inhibit FAAH	O=C(CCC(=O)c1ncc(-c2ccccn2)o1)NCCc1ccccc1 [13a, 4-Oxo-N-phenethyl-4-(5-(pyridin-2-yl)oxazol-2-yl)butanamide]
lower potency	O=C(CCC(O)CCCc1ccccc1)c1ncc(-c2ccccn2)o1 (stereo not drawn) [13f, 4-Hydroxy-7-phenyl-1-(5-(pyridin-2-yl)oxazol-2-yl)heptan-1-one]
loss of activity	O=C(c1ncc(-c2ccccn2)o1)C1CC1 [14d, Cyclopropyl(5-(pyridin-2-yl)oxazol-2-yl)methanone]
loss of activity	O=C(c1ncc(-c2ccccn2)o1)C1CCCC1 [14e, Cyclopentyl(5-(pyridin-2-yl)oxazol-2-yl)methanone]
submicromolar inhibitor of FAAH	O=C(CCl)c1ncc(-c2ccccn2)o1 [14f, 2-Chloro-1-(5-(pyridin-2-yl)oxazol-2-yl)ethanone]
significant loss of inhibitory potency	O=C(CCCCc1ccccc1)CC(=O)c1ncc(-c2ccccn2)o1 [14g, 7-Phenyl-1-(5-(pyridin-2-yl)oxazol-2-yl)heptane-1,3-dione]
substantial loss in inhibitory potency	OC(CCCCc1ccccc1)CC(O)c1ncc(-c2ccccn2)o1 (stereo not drawn) [14h, 7-Phenyl-1-(5-(pyridin-2-yl)oxazol-2-yl)heptane-1,3-diol]
substantial loss in inhibitory potency	CN(CCCCc1ccccc1)CC(O)c1ncc(-c2ccccn2)o1 (stereo not drawn) [14i, 2-(Methyl(4-phenylbutyl)amino)-1-(5-(pyridin-2-yl)oxazol-2-yl)ethanol]

Second part, the molecule before the results:

SMILES	FAAH inhibitory potency (in words)
O=C(CCCCCCc1cccs1)c1ncc(-c2ccccn2)o1 [5a, 1-Oxo-1-[5-(2-pyridyl)oxazol-2-yl]-7-(2-thienyl)heptane]	effective inhibitors
O=C(CCCCCCc1ccsc1)c1ncc(-c2ccccn2)o1 [5b, 1-Oxo-1-[5-(2-pyridyl)oxazol-2-yl]-7-(3-thienyl)heptane]	effective inhibitors
O=C(CCCCCCc1cccc2ccccc12)c1ncc(-c2ccccn2)o1 [5c, 1-Oxo-1-[5-(2-pyridyl)oxazol-2-yl]-7-(1-naphthyl)heptane]	effective inhibitors
O=C(CCCCCCc1ccc2ccccc2c1)c1ncc(-c2ccccn2)o1 [5d, 1-Oxo-1-[5-(2-pyridyl)oxazol-2-yl]-7-(2-naphthyl)heptane]	effective inhibitors
CS(=O)(=O)c1cccc(CCCCCCC(=O)c2ncc(-c3ccccn3)o2)c1 [5ll, 1-Oxo-1-[5-(2-pyridyl)oxazol-2-yl]-7-(3-(methylsulfonyl)phenyl)heptane]	significant potency
CCCCCCc1ccc(CCCCCCC(=O)c2ncc(-c3ccccn3)o2)cc1 [5nn, 1-Oxo-1-[5-(2-pyridyl)oxazol-2-yl]-7-(4-hexylphenyl)heptane]	significant potency
CCCCCCc1cccc(CCCCCCC(=O)c2ncc(-c3ccccn3)o2)c1 [5oo, 1-Oxo-1-[5-(2-pyridyl)oxazol-2-yl]-7-(3-hexylphenyl)heptane]	less effective
O=C(CSCCCCc1ccccc1)c1ncc(-c2ccccn2)o1 [12b, 2-(4-Phenylbutylthio)-1-(5-(pyridin-2-yl)oxazol-2-yl)ethanone]	significant potency
O=C(CS(=O)(=O)CCCCc1ccccc1)c1ncc(-c2ccccn2)o1 [12d, 2-(4-Phenylbutylsulfonyl)-1-(5-(pyridin-2-yl)oxazol-2-yl)ethanone]	significant loss in potency

Same assay, conditions: rat FAAH, o- and p-methylsulfone vs 5ll

fold less effective than m-methylsulfone 5ll	SMILES
approximately 10 fold	CS(=O)(=O)c1ccccc1CCCCCCC(=O)c1ncc(-c2ccccn2)o1 [5kk, 1-Oxo-1-[5-(2-pyridyl)oxazol-2-yl]-7-(2-(methylsulfonyl)phenyl)heptane]
approximately 10 fold	CS(=O)(=O)c1ccc(CCCCCCC(=O)c2ncc(-c3ccccn3)o2)cc1 [5mm, 1-Oxo-1-[5-(2-pyridyl)oxazol-2-yl]-7-(4-(methylsulfonyl)phenyl)heptane]

Same assay, conditions: recombinant rat FAAH, 14C-oleamide, pH 9.0, 20-23 °C

Ki	SMILES
3 nM	O=C(CCCCCSc1ccccc1)c1ncc(-c2ccccn2)o1 [12p, 6-(Phenylthio)-1-(5-(pyridin-2-yl)oxazol-2-yl)hexan-1-one]
8 nM	O=C(c1ncc(-c2ccccn2)o1)C(O)CCCCCc1ccccc1 (stereo not drawn) [13d, 2-Hydroxy-7-phenyl-1-(5-(pyridin-2-yl)oxazol-2-yl)heptan-1-one]

The next lines start with the molecule.

SMILES	Ki
O=C(CCCCCCc1cccc2ccccc12)c1ncc(-c2ccccn2)o1 [5c, 1-Oxo-1-[5-(2-pyridyl)oxazol-2-yl]-7-(1-naphthyl)heptane]	2.6 nM
O=C(CCCCCCc1cccc(Cl)c1)c1ncc(-c2ccccn2)o1 [5hh, 1-Oxo-1-[5-(2-pyridyl)oxazol-2-yl]-7-(3-chlorophenyl)heptane]	0.9 nM

Test system: not given
Assay: not given
Settings: not given

melting point	SMILES
50 to 51 °C	O=C(CCCCC#Cc1cccc(Cl)c1)c1ncc(-c2ccccn2)o1 [4hh, 1-Oxo-1-[5-(2-pyridyl)oxazol-2-yl]-7-(3-chlorophenyl)hept-6-yne]
91 to 92 °C	O=C(CCCCCCc1cccc(Cl)c1)c1ncc(-c2ccccn2)o1 [5hh, 1-Oxo-1-[5-(2-pyridyl)oxazol-2-yl]-7-(3-chlorophenyl)heptane]
